In PMC10817170, “Effect of an NHE3 inhibitor in combination with an NPT2b inhibitor on gastrointestinal phosphate absorption in Rodent models” (PLOS ONE, 2024):
Values joined by “and” are separate entries in the source; they are usually repeats but may differ in a detail not shown here. Equal entries are not always repeated.

Molecular target: T1, Human NHE3 (Homo sapiens, UniProt P48764)
T1 construct: myc
T1 sequence (P48764 26-834): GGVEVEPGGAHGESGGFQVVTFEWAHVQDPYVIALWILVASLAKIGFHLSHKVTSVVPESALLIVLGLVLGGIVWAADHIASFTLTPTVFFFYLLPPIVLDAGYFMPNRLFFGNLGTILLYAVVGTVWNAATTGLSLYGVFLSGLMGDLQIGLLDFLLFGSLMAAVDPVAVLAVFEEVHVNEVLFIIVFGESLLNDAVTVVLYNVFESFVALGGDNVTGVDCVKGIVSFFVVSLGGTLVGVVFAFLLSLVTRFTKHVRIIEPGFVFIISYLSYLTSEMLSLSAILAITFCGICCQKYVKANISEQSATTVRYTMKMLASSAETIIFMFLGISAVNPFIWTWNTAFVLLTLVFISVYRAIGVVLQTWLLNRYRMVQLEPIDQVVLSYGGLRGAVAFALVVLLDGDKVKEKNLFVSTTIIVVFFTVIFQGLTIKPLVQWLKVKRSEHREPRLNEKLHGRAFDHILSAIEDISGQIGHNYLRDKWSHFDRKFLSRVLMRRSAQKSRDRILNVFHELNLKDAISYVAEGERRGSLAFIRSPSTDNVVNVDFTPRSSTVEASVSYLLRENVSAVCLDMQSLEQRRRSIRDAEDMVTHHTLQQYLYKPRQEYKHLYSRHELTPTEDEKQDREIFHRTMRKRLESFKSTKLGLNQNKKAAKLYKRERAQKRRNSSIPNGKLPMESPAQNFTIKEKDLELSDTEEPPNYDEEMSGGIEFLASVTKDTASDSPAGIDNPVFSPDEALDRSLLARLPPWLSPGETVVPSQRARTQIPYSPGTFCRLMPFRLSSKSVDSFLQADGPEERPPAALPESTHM
Experiment: NHE3 activity assay (intracellular pH recovery, BCECF-AM) in human NHE3 over-expressing NHD C8 cells
Type: cell-based
Text: Sodium hydrogen exchanger activity specific to NHE3 was achieved by overexpressing human NHE3 in an endogenously NHE-deficient cell line generated by chemical-induced mutagenesis. After the mutagenesis, NHE-deficient cells were selected by loading lithium into the cells and then exposing them to an acidic extracellular environment. Under these conditions, NHE exchanges intracellular lithium for extracellular protons, thus only NHE-deficient cells can avoid a toxic intracellular acidosis and survive. Dede cells (ATCC ccl-39), grown to 50% confluence in McCoy’s 5A medium (GE Healthcare) with 10% FBS and antibiotic/antimycotic solution (GE Healthcare) in a T75 flask, were treated with 500 μg/mL of EMS (ethyl methanesulfonate, Sigma-Aldrich) in medium for 20 hours for mutagenesis and washed twice with phosphate buffered saline (PBS). The cells were then trypsinized, plated in two T175 flasks and cultured in fresh medium without EMS for 2 days. […] The intracellular pH change is then measured by an intracellular pH-sensitive dye, 2’,7’-Bis-(2-carboxyethyl)-5(and-6)-carboxyfluorescein, acetoxymethyl ester (BCECF-AM, ThermoFisher Scientific) upon reintroduction of sodium. […] The plate was immediately read for fluorescence at the excitation wavelength of 505 nm and the emission wavelength of 550 nm using a kinetic method by Molecular Device, SpectraMax i3. […]

In the case of `CN1Cc2c(Cl)cc(Cl)cc2[C@H](c2cccc(S(=O)(=O)NCCOCCOCCN/C(=N\C(N)=O)NCCCCN/C(=N/C(N)=O)NCCOCCOCCNS(=O)(=O)c3cccc([C@@H]4CN(C)Cc5c(Cl)cc(Cl)cc54)c3)c2)C1.Cl.Cl` [LY3304000, (Z)-[[4-[[(Z)-N’-carbamoyl-N-[2-[2-[2-[[3-[(4S)-6,8-dichloro-2-methyl-3,4-dihydro-1H-isoquinolin-4-yl]phenyl]sulfonylamino]ethoxy]ethoxy]ethyl]carbamimidoyl]amino]butylamino]-[2-[2-[2-[[3-[(4S)-6,8-dichloro-2-methyl-3,4-dihydro-1H-isoquinolin-4-yl]phenyl]sulfonylamino]ethoxy]ethoxy]ethylamino]methylene]urea dihydrochloride], the “slope of the concentration-response curve” value (4-parameter fit, representative curve) is reported as 0.8 and the IC50 (geometric mean of individual IC50, n=7) is reported as 5.8 nM and 5.76 nM.
